Measurements taken from ChEMBL document CHEMBL6083267, “Rational fragment-based design of compounds targeting the PWWP domain of the HRP family” (Eur J Med Chem, 2024).

biological target: PC4 and SFRS1-interacting protein (Homo sapiens, UniProt O75475)
Sequence (O75475 whole entry): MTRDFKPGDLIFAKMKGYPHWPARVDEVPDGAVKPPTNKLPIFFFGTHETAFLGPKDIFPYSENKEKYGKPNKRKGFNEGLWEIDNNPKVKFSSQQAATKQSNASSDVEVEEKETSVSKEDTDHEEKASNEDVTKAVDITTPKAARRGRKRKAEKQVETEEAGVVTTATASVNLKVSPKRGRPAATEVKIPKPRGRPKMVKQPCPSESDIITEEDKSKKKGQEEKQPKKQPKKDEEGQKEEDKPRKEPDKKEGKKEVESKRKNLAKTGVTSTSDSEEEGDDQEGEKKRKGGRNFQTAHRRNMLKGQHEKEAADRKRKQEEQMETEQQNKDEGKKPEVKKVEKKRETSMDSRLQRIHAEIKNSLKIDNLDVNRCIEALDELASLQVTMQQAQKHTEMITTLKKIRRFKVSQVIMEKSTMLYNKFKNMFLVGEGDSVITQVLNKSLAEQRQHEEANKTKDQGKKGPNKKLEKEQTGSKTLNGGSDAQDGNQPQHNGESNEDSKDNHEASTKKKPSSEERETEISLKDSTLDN
Description: Binding affinity to N-terminal His10-tagged LEDGF/P75 PWWP domain (1 to 110 residues) (unknown origin) expressed in Escherichia coli assessed as dissociation constant incubated for overnight by NMR analysis

Row | Structure (SMILES) | Kd
1 | NC(=O)CCN1CCCC1c1ccccc1 (stereo unspecified) | 363 µM
2 | CCS(=O)(=O)c1ccccc1NC(=O)CCl | 700 µM
3 | NCc1cncc(Br)c1 | 216 µM
4 | CCS(=O)(=O)c1ccc(C2CCCCN2)cc1 (stereo unspecified) | 526 µM
5 | CCS(=O)(=O)c1ccccc1NC(=O)COc1cccc(CC(=O)O)c1 | 590 µM
6 | Nc1ccc(CNCc2cncc(Br)c2)cc1 | 147 µM
